From ChEMBL document CHEMBL3616454, “Synthesis and antiviral activity of some new bis-1,3-thiazole derivatives” (Eur J Med Chem, 2015)
Values after ≈ are worked out from the molar mass of the structure shown.

Experiments:
Hepatitis C virus [1] = test: Antiviral activity against Hepatitis C virus 1b CON1 infected in human Huh/NeoET cells expressing luciferase assessed as reduction of virus induced cytopathic effect by luciferse reporter assay; assay type: functional, cell-based, Hepacivirus hominis; details: genotype 1b Con1, Huh/NeoET
[2] = Cytotoxicity against human Huh/NeoET cells assessed as cell viability by cytoTox1 cell proliferation assay; assay type: cell-based
[3] = Selectivity index, ratio of CC50 for luciferase expressing Huh/NeoET cells to EC50 for Hepatitis C virus 1b CON1; assay type: toxicity, cell-based; details: human, read-out: Ratio CC50/EC50
[4] = Antiviral activity against Influenza A virus (A/California/07/2009(H1N1) infected in MDCK cell line assessed as reduction of virus induced cytopathic effect by visual assay; assay type: functional, cell-based
[5] = Antiviral activity against Influenza A virus (A/California/07/2009(H1N1)) infected in MDCK cell line assessed as reduction of virus induced cytopathic effect by neutral red assay; assay type: functional, cell-based
[6] = Cytotoxicity against MDCK cells assessed as cell viability by visual assay; assay type: cell-based, Canis lupus familiaris; details: dog
[7] = Cytotoxicity against MDCK cells assessed as cell viability by neutral red assay; assay type: cell-based, Canis lupus familiaris; details: dog
[8] = Selectivity index, ratio of CC50 for MDCK cells by visual method to EC50 for Influenza A virus (A/California/07/2009(H1N1) virus by visual method; assay type: toxicity, cell-based; details: dog, read-out: Ratio CC50/EC50
[9] = Selectivity index, ratio of CC50 for MDCK cells by neutral red method to EC50 for Influenza A virus (A/California/07/2009(H1N1) virus by neutral red method; assay type: toxicity, cell-based; details: dog, read-out: Ratio CC50/EC50
Hepatitis C virus [10] = test: Antiviral activity against HCV 1b/2a (Con-1/JFH-1) infected in human Huh7.5 cells assessed as reduction of virus induced cytopathic effect by luciferase reporter assay; assay type: functional, organism-based, Hepacivirus hominis; details: Huh-7
Hepatitis C virus [11] = test: Antiviral activity against HCV 2a/2a (J6/JFH1) infected in human Huh7.5 cells assessed as reduction of virus induced cytopathic effect by luciferase reporter assay; assay type: functional, organism-based, Hepacivirus hominis; details: Huh-7
Hepatitis C virus [12] = test: Antiviral activity against HCV 2a (JFH1) infected in human Huh7 cells assessed as reduction of virus induced cytopathic effect by luciferase reporter assay; assay type: functional, organism-based, Hepacivirus hominis; details: Huh-7
Hepatitis C virus [13] = test: Antiviral activity against HCV 1a/2a (H77/JFH1) infected in human Huh7.5 cells assessed as reduction of virus induced cytopathic effect by luciferase reporter assay; assay type: functional, organism-based, Hepacivirus hominis; details: Huh-7
Hepatitis C virus [14] = test: Antiviral activity against HCV 1b Con1 infected in human Huh7.5 cells assessed as reduction of virus induced cytopathic effect by qRT-PCR; assay type: functional, cell-based, Hepacivirus hominis; details: genotype 1b Con1, Huh-7
Hepatitis C virus [15] = test: Antiviral activity against HCV 1a H77 infected in human Huh7.5 cells assessed as reduction of virus induced cytopathic effect by qRT-PCR; assay type: functional, cell-based, Hepacivirus hominis; details: genotype 1a H77, Huh-7
[16] = Cytotoxicity against human HuH7 cells assessed as cell viability by cytoTox1 cell proliferation assay; assay type: cell-based, Huh-7
[17] = Cytotoxicity against human Huh7.5 cells assessed as cell viability by cytoTox1 cell proliferation assay; assay type: cell-based, Huh-7.5
[18] = Selectivity index, ratio of CC50 for human HuH7.5 cells to EC50 for HCV 1b/2a (Con-1/JFH-1); design: species or system Huh-7
[19] = Selectivity index, ratio of CC50 for human HuH7.5 cells to EC50 for HCV 2a/2a (J6/JFH1); design: species or system Huh-7
[20] = Selectivity index, ratio of CC50 for human HuH7 cells to EC50 for HCV 2a (JFH1); design: species or system Huh-7
[21] = Selectivity index, ratio of CC50 for human HuH7 cells to EC50 for HCV 1a/2a (H77/JFH1); design: species or system Huh-7
[22] = Selectivity index, ratio of CC50 for human HuH7 cells to EC50 for Hepatitis C virus 1b CON1; assay type: toxicity, cell-based, Huh-7; details: read-out: Ratio CC50/EC50
[23] = Selectivity index, ratio of CC50 for human HuH7 cells to EC50 for Hepatitis C virus 1a H77; assay type: toxicity, cell-based, Huh-7; details: read-out: Ratio CC50/EC50

**Q.** What does the source list for `CC(=O)C1=NN(c2ccc(Cl)cc2)/C(=C2\S/C(=N/c3nc(-c4c(C)n(C)n(-c5ccccc5)c4=O)cs3)N(c3ccccc3)C2=O)S1`?
**A.** EC50 (Hepatitis C virus [1]): 1.12 µM; EC90 (Hepatitis C virus [1]): 14.4 µM; CC50 [2]: > 20 µM; selectivity ratio [3]: > 18

**Q.** For `Cc1c(-c2csc(/N=C3/S/C(=C4/SCC(=O)N4c4ccccc4)C(=O)N3c3ccccc3)n2)c(=O)n(-c2ccccc2)n1C`, which EC50 [4] is on record?
**A.** The EC50 was 23 µg/mL (≈ 36.1 µM).

**Q.** What about the EC50 [5] of the same molecule?
**A.** Its EC50 is 23 µg/mL (≈ 36.1 µM).

**Q.** And the CC50 [6]?
**A.** Its CC50 is > 100 µg/mL.

**Q.** What about the CC50 [7] of the same molecule?
**A.** Its CC50 is > 100 µg/mL.

**Q.** And the selectivity ratio [8]?
**A.** The selectivity ratio was > 4.2.

**Q.** What about the selectivity ratio [9] of the same molecule?
**A.** The selectivity ratio was > 4.3.

**Q.** What about the EC50 (Hepatitis C virus [1]) of the same molecule?
**A.** Its EC50 is 12.7 µM.

**Q.** And the EC90 (Hepatitis C virus [1])?
**A.** The EC90 was > 20 µM.

**Q.** And the CC50 [2]?
**A.** The CC50 was > 20 µM.

**Q.** And the selectivity ratio [3]?
**A.** Its selectivity ratio is > 2.

**Q.** Which EC50 (Hepatitis C virus [1]) does the source give for `CC(=O)C1=NN(c2ccccc2)/C(=C2\S/C(=N/c3nc(-c4c(C)n(C)n(-c5ccccc5)c4=O)cs3)N(c3ccccc3)C2=O)S1` here?
**A.** Its EC50 is 0.56 µM.

**Q.** And the EC90 (Hepatitis C virus [1])?
**A.** Its EC90 is 1.81 µM.

**Q.** What about the CC50 [2] of the same molecule?
**A.** Its CC50 is > 20 µM.

**Q.** And the selectivity ratio [3]?
**A.** Its selectivity ratio is > 36.

**Q.** What about the EC50 (Hepatitis C virus [10]) of the same molecule?
**A.** The EC50 was 1.09 µM.

**Q.** What about the EC90 (Hepatitis C virus [10]) of the same molecule?
**A.** Its EC90 is > 20 µM.

**Q.** What about the EC50 (Hepatitis C virus [11]) of the same molecule?
**A.** Its EC50 is 1.54 µM.

**Q.** And the EC90 (Hepatitis C virus [11])?
**A.** Its EC90 is > 20 µM.

**Q.** And the EC50 (Hepatitis C virus [12])?
**A.** Its EC50 is 17.7 µM.

**Q.** And the EC90 (Hepatitis C virus [12])?
**A.** Its EC90 is > 20 µM.

**Q.** And the EC50 (Hepatitis C virus [13])?
**A.** The EC50 was 13.6 µM.

**Q.** And the EC90 (Hepatitis C virus [13])?
**A.** The EC90 was > 20 µM.

**Q.** What about the EC50 (Hepatitis C virus [14]) of the same molecule?
**A.** The EC50 was 0.46 µM.

**Q.** What about the EC90 (Hepatitis C virus [14]) of the same molecule?
**A.** The EC90 was > 20 µM.

**Q.** And the EC50 (Hepatitis C virus [15])?
**A.** The EC50 was > 20 µM.

**Q.** What about the EC90 (Hepatitis C virus [15]) of the same molecule?
**A.** The EC90 was > 20 µM.

**Q.** What about the CC50 [16] of the same molecule?
**A.** Its CC50 is > 20 µM.

**Q.** And the CC50 [17]?
**A.** Its CC50 is > 20 µM.

**Q.** And the “Ratio CC50/EC50” value [18]?
**A.** Its value is >18.

**Q.** And the “Ratio CC50/EC50” value [19]?
**A.** The value was >13.

**Q.** What about the “Ratio CC50/EC50” value [20] of the same molecule?
**A.** The value was >1.

**Q.** And the “Ratio CC50/EC50” value [21]?
**A.** Its value is >1.

**Q.** What about the selectivity ratio [22] of the same molecule?
**A.** Its selectivity ratio is > 43.

**Q.** What about the selectivity ratio [23] of the same molecule?
**A.** The selectivity ratio was 1.

**Q.** With `CC(=O)C1=NN(c2ccc(C)cc2)/C(=C2\S/C(=N/c3nc(-c4c(C)n(C)n(-c5ccccc5)c4=O)cs3)N(c3ccccc3)C2=O)S1` as the molecule, how does the EC50 (Hepatitis C virus [1]) read?
**A.** The EC50 was 1.04 µM.

**Q.** What about the EC90 (Hepatitis C virus [1]) of the same molecule?
**A.** Its EC90 is 4.76 µM.

**Q.** And the CC50 [2]?
**A.** Its CC50 is > 20 µM.

**Q.** And the selectivity ratio [3]?
**A.** Its selectivity ratio is > 19.

**Q.** What does the source list for `NC(=O)c1ncn([C@@H]2O[C@H](CO)[C@@H](O)[C@H]2O)n1` [RIBAVIRIN]?
**A.** EC50 [4]: 24 µg/mL (≈ 98.3 µM); EC50 [5]: 16 µg/mL (≈ 65.5 µM); CC50 [6]: > 320 µg/mL; CC50 [7]: > 320 µg/mL; selectivity ratio [8]: > 32; selectivity ratio [9]: > 2

**Q.** Which EC50 [4] does the source give for `CCOC(=O)C1=C(C)N(c2ccccc2)/C(=C2\S/C(=N/c3nc(-c4c(C)n(C)n(-c5ccccc5)c4=O)cs3)N(c3ccccc3)C2=O)S1` here?
**A.** The EC50 was 68 µg/mL (≈ 96.2 µM).

**Q.** What about the EC50 [5] of the same molecule?
**A.** Its EC50 is 92 µg/mL (≈ 130 µM).

**Q.** What about the CC50 [6] of the same molecule?
**A.** The CC50 was > 100 µg/mL.

**Q.** And the CC50 [7]?
**A.** Its CC50 is > 100 µg/mL.

**Q.** And the selectivity ratio [8]?
**A.** Its selectivity ratio is > 1.5.

**Q.** What about the selectivity ratio [9] of the same molecule?
**A.** Its selectivity ratio is > 1.1.

**Q.** Which EC50 (Hepatitis C virus [1]) does the source give for `COc1ccc(N2N=C(C(C)=O)S/C2=C2/S/C(=N/c3nc(-c4c(C)n(C)n(-c5ccccc5)c4=O)cs3)N(c3ccccc3)C2=O)cc1` here?
**A.** The EC50 was 2.8 µM.

**Q.** What about the EC90 (Hepatitis C virus [1]) of the same molecule?
**A.** Its EC90 is 15.5 µM.

**Q.** What about the CC50 [2] of the same molecule?
**A.** The CC50 was > 20 µM.

**Q.** What about the selectivity ratio [3] of the same molecule?
**A.** Its selectivity ratio is > 7.
